# Test results as given in publication PMC4995024, “Ligand Binding at the α4-α4 Agonist-Binding Site of the α4β2 nAChR Triggers Receptor Activation through a Pre-Activated Conformational State” (PLoS ONE, 2016).
# Values joined by “and” are separate entries in the source; they are usually repeats but may differ in a detail not shown here. Equal entries are not always repeated. “Also recorded” adds a separate entry of the source. Where two headings read alike, the source gives them in different places. Marks after values point to notes of the source that are not given here.
# What was measured:
# [1] = biological target: T1, 3α4:2β2 nAChR (Homo sapiens, UniProt P17787+P43681); experiment: Linear kinetic models (Model 1, Model 2) of 3α4:2β2 receptor activation; details: for Constant multiplier C (CE / CF): from change in EC50 and Po,max when NS9283 (10 μM) applied in addition to the agonist
# Source text: To determine how binding at the α4-α4 site alters receptor transitions during activation, two simple linear kinetic models were used to describe receptor activation when two α4-β2 binding sites are occupied. For simplicity the binding of two ligands at α4-β2 sites is combined into a single step. The first model (Model 1) is a three-step model designed to determine whether the third ligand alters: (i) the binding affinity of ligands at the α4-β2 site (cooperativity); (ii) the transitions between closed and open states (gating) or (iii) the transitions between open and a distinct closed state in the presence of ligand (desensitization). The second model (Model 2) expanded the gating transitions to investigate whether a pre-activation (flipping) step is altered. We then determined which equilibrium constant was principally modulated in these models when NS9283 bound to the α4-α4 site potentiated the Saz-A or TC-2559 responses.
# The open probability for the first model is given by (Fig 4A): PoCtrl=E.[A]/K+[A](1+E+E.D) (1) Where E is the gating constant, [A] is the agonist concentration, K is the dissociation constant of Saz-A or TC-2559, and D is the desensitizing constant. By rearranging Eq 1 to isolate [A]: PoCtrl=E/1+E+E.D/1+K/[A].(1+E+E.D) (2)
# The open probability curve will fit to a Hill equation with a slope coefficient of one, since the ligand binding steps have been simplified by aggregating into a single transition. It follows from Eq 2 that the maximum open probability (when [A] approaches infinity) is given by: Po,maxCtrl=E/1+E+E.D (3) and the half-maximum effective concentration is: EC50Ctrl=K/1+E+E.D (4) It is apparent from Eq 3 that to determine the equilibrium constants for this kinetic model, the open probability (Po) of the receptor must be estimated by normalizing to the responses to ACh and NS206, rather than normalizing to the response of a saturating concentration of ACh.
# The open probability in the presence of NS9283 ( Po.maxNS ; the superscript denotes when NS9283 is co-applied) and half-maximum effective concentration ( EC50NS ) can be described by substituting E with CE.E in Eqs 3 and 4 respectively. The value of CE can then be calculated from the ratios of the EC50 values and the maximum open probabilities in control and when potentiated by NS9283, as follows: EC50ctrl/Po,maxctrl=K/E (5) EC50NS/Po,maxNS=K/CE.E (6) CE=Po,maxNS/Po,maxctrl×EC50ctrl/EC50NS (7)
# As NS9283 binds selectively to the α4-α4 site, we assumed that it has the same multiplier effect; regardless of which partial agonist is bound at the α4-β2 site. […] Equilibrium constants were then calculated using the following equations. Rearranging Eq 3: 1/Po.maxCtrl−1=1+D.E/E (8)
# Rearranging to give D. D=CE(1/Po,maxNS−1)−(1/Po,maxctrl−1)/CE−1 (11)
# Rearranging Eq 3 to give E. E=Po,maxctrl/(1−Po,maxctrl−D.Po,maxctrl) (12)
# Rearranging Eqs 5 and 6 to give K K=E.EC50ctrl/Po,maxctrl=CE.E.EC50NS/Po,maxNS (13)
# The open probability for this model is given by the following: Po=E.F.[A]/K+[A](1+F+E.F) (17)
# Where K is the dissociation constant, F is the pre-activating equilibrium constant and E is the gating constant. It also follows that the maximum open probability is given by: Po,max=E.F/1+F+E.F (18)
# Thus, both F and E will have an influence on the observed macroscopic efficacy. The half-maximum effective concentration is: EC50=K/1+F+E.F (19)
# We investigated the possibility that NS9283 increases the pre-activation constant, F, by a factor, CF, in Model 2 (Fig 5B; Scheme 2).
# By subtracting Eq 21 from Eq 22 and re-arranging in terms of E: E=CF−1/CF(1/Po,maxNS−1)−(1/Po,maxctrl−1) (23)
# The value of E can then be calculated using Eq 23.
# [2] = biological target: T2, 2α4:3β2 nAChR (Homo sapiens, UniProt P17787+P43681); experiment: Two-electrode voltage-clamp electrophysiology in Xenopus oocytes, WT 2α4:3β2 receptor; assay type: cell-based; details: for Agonist type: 2α4:3β2, relative to saturating ACh (1 mM)
# T2 construct: expressed in transfected cells; host or cells: Xenopus laevis oocytes injected with cRNA (α4:β2 ratio 1:4)
# Procedure: (§1) cDNA encoding human nAChR α4 and β2 subunits were cloned, and cRNA was prepared as previously described. A triple-point-mutated β2^m subunit with the mutations V136H, F144Q, and L146T was constructed as previously described.
# (§2) This study was carried out in strict accordance with the Australian Code of Practice for the Care and Use of Animals for Scientific Purposes. The protocol for this specific study was approved by the Animal Ethics Committee of the University of Sydney (Protocol number: 2013/5915). All surgical procedures were carried out in under anesthesia induced by immersion in a tricaine solution to ameliorate suffering. […] Mature female Xenopus laevis frogs were anaesthetised with 0.17% tricaine (buffered with 0.06% sodium bicarbonate) for 15 minutes, after which the loss of righting reflex was confirmed before transferring on to ice where surgeries were performed. A small (1–2 cm) abdominal incision was made through both the skin and muscle layer with surgical knives. Ovary lobes were removed with a pair of forceps, and kept in oocyte releasing 2 (OR2) buffer (82.5 mM NaCl, 2 mM KCl, 1 mM MgCl2, 5 mM HEPES hemisodium; pH 7.4). The skin and muscle layer were sutured separately, and frogs were allowed to recover for six months before they were reselected for surgeries. A total of five recoverable surgeries with 6–12 months recovery periods between surgeries were performed on each frog to reduce the adverse effects of Xenopus transportation into Australia, as approved by the Animal Ethics Committee of the University of Sydney (Protocol number: 2013/5915) before a terminal surgery was performed, in which a lethal dose of tricaine (0.5%) was used. Briefly, lobes from ovaries of female adult X. laevis were removed and defolliculated to obtain isolated oocytes. Oocytes were injected with a total of ∼25 ng of cRNA encoding human WT receptor as shown earlier to express 3α4:2β2 and 2α4:3β2 [17], and incubated for 2–5 days at 15–18°C.
# (§3) Oocytes were subjected to two-electrode voltage-clamp electrophysiological testing using a custom-built system where solutions were applied directly to the oocytes via a glass capillary tube placed in the vicinity of the cell. This ensured a solution exchange rate faster than two seconds. Ligand was applied for 30 sec and peak current amplitudes were measured. To minimise the effects of long desensitized states, the number of applications of ligand at each oocyte was minimized rather than performing full concentration-response curves on individual oocytes.
# (§4) Concentration–response curves for Sazetidine-A and TC-2559 were fitted using GraphPad Prism 6 to a monophasic Hill equation with Hill Slope of 1: I=Imax(1/1+(EC50/A)) Where Imax is the maximum current, EC50 is the concentration that produces the half-maximal response and [A] is the concentration of ligand.
# [3] = biological target: T1, 3α4:2β2 nAChR; experiment: Two-electrode voltage-clamp electrophysiology in Xenopus oocytes, WT 3α4:2β2 receptor; assay type: cell-based; parameters: expressed in transfected cells; host or cells: Xenopus laevis oocytes injected with cRNA (α4:β2 ratio 4:1); details: for Decrease of EC50 value by co-application of NS9283 / Increase of maximum response by co-application of NS9283: 3α4:2β2, NS9283 10 μM; for Est Pomax: normalized to 1 mM ACh + NS206 (10 μM); for Agonist type: 3α4:2β2, relative to saturating ACh (1 mM)
# Procedure: as §1, §2, §3, §4
# Concentration–response curves for ACh were fitted using GraphPad Prism 6 to a biphasic Hill equation with Hill slopes of 1: I=Imax*((Frac1/1+(EC50(1)/[A]))+(Frac2/1+(EC50(2)/[A]))) Where Frac1 and Frac2 are the fractions and EC50(1) and EC50(2) are the half-maximal concentrations of high and low-sensitivity phases of the concentration-response curves, respectively.
# Ideally, single-channel recordings would be used to estimate the Po,max values; however this is technically highly challenging for α4β2 nAChRs due to channel rundown and desensitization. To overcome this, an alternate method utilizing co-application of ACh and NS206, a positive allosteric modulator (PAM), was used to estimate the maximum open probability (Est. Po,max) at 3α4:2β2 receptors. […] We have assumed that when both the positive allosteric modulator and native ligand ACh are bound, the probability of the receptor being opened is approaching one, and was previously successfully used for other members of LGICs.
# [4] = tested on: T3, 3α4:2β2^HQT nAChR (β2 V136H, F144Q, L146T); experiment: Two-electrode voltage-clamp electrophysiology in Xenopus oocytes, mutated 3α4:2β2^HQT receptor; assay type: cell-based, human; details: for I/I1mM ACh: 3α4:2β2^HQT; for Activation of 3α4:2β2^HQT mutant receptors: receptor with three α4-α4-like interfaces
# T3 construct: expressed in transfected cells; host or cells: Xenopus laevis oocytes injected with cRNA
# Procedure: as §1, §2, §3
# Nevertheless, a contribution to Saz-A and TC-2559 activation from binding at the α4-α4 interface cannot be excluded from these experiments. Therefore, Saz-A and TC-2559 were applied to mutated 3α4:2β2^HQT receptors where the α4-β2 binding site is abolished. […]
# [5] = biological target: T1, 3α4:2β2 nAChR; parameters: expressed in transfected cells; host or cells: Xenopus laevis oocytes injected with cRNA (α4:β2 ratio 4:1); method as in PMID 16720757, PMID 21795528; details: 3α4:2β2 stoichiometry; cited from earlier work
# [6] = read-out: K (binding equilibrium constant), Model-1, Model 1, 3α4:2β2
# [7] = read-out: K (binding equilibrium constant), Model-2, Model 2, 3α4:2β2
# [8] = 3α4:2β2, co-applied with NS9283 (10 μM)
# T2 sequence (P43681 29-627 limits assumed): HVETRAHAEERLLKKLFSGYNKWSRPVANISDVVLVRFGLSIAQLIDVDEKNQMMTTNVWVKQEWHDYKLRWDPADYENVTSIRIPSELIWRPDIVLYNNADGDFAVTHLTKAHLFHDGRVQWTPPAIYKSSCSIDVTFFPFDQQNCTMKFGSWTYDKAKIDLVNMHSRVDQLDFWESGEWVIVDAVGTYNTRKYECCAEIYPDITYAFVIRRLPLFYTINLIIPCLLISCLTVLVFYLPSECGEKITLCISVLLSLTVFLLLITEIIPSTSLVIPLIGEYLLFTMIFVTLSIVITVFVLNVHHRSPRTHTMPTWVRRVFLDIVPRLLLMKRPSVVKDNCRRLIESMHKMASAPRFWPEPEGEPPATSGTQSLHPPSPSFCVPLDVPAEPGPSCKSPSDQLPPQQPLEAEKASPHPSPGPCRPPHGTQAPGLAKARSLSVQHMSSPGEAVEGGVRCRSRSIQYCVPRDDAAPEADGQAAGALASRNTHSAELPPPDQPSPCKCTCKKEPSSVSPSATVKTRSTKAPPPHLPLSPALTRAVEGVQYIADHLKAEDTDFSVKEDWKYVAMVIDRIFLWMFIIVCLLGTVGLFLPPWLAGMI
# T2 sequence (P17787 26-502): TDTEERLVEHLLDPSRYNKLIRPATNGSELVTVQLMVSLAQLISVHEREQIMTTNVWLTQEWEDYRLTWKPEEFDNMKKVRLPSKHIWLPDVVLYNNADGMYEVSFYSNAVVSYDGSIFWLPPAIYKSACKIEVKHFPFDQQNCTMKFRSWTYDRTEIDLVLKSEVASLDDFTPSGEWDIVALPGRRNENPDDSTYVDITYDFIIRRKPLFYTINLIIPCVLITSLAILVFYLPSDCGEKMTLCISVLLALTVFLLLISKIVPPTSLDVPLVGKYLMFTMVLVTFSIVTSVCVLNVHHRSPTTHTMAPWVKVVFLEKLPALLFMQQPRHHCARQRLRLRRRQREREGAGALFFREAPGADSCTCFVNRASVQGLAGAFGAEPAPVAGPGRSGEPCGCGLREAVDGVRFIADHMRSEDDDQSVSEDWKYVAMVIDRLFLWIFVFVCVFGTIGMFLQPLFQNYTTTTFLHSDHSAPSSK
# T1 sequence (P43681 29-627 limits assumed): as the sequence (P43681 29-627 limits assumed) above
# T1 sequence (P17787 26-502): as the sequence (P17787 26-502) above
smiles,measurement,setting,value
CCOc1cncc(/C=C/CCNC)c1 [TC-2559],"D (desensitized equilibrium constant), Model-1","[1]; Model 1, 3α4:2β2",0.28
same,"E (gating equilibrium constant), Model-1","[1]; Model 1, 3α4:2β2",0.27
same,"E (gating equilibrium constant), Model-2","[1]; Model 2, 3α4:2β2",3.59
same,"F (flipping equilibrium constant), Model-2","[1]; Model 2, 3α4:2β2",0.08
same,Constant multiplier C (CE / CF),[1],9.2 and 9.15
same,Kd,[1]; [6],833 nM
same,Kd,[1]; [7],836 nM
same,I/I1mM ACh (maximum response normalized to 1 mM ACh),"[2]; 2α4:3β2, ligand alone",330 ± 10%
same,Agonist type,[2],super agonist
same,Decrease of EC50 value by co-application of NS9283,[3],3.1 fold
same,Increase of maximum response by co-application of NS9283,[3],2.9 fold
same,Est Pomax,[3]; [8],59% and 59 ± 1.5%
same,I/I1mM ACh (maximum response normalized to 1 mM ACh),"[3]; 3α4:2β2, ligand alone",41 ±4%
same,Est Pomax,"[3]; 3α4:2β2, ligand alone",20% and 20 ± 2%
same,Agonist type,[3],partial agonists
same,Difference of EC50 values between 3α4:2β2 and 2α4:3β2 receptors,[3]; 3α4:2β2 vs 2α4:3β2,5 fold
same,I/I1mM ACh,[4],0* %
same,Activation of 3α4:2β2^HQT mutant receptors,[4],do not activate; also recorded: Neither Saz-A or TC-2559 activated
"OCCCCC#Cc1cncc(OC[C@@H]2CCN2)c1 [Saz-A, Sazetidine-A]","D (desensitized equilibrium constant), Model-1","[1]; Model 1, 3α4:2β2",0.50
same,"E (gating equilibrium constant), Model-1","[1]; Model 1, 3α4:2β2",0.10
same,"E (gating equilibrium constant), Model-2","[1]; Model 2, 3α4:2β2",1.99
same,"F (flipping equilibrium constant), Model-2","[1]; Model 2, 3α4:2β2",0.05
same,Constant multiplier C (CE / CF),[1],8.7 and 8.75
same,Kd,[1]; [6],27 nM
same,Kd,[1]; [7],27 nM
same,I/I1mM ACh (maximum response normalized to 1 mM ACh),"[2]; 2α4:3β2, ligand alone",108 ± 6%
same,EC50,"[2]; 2α4:3β2, ligand alone, Hill co-efficient of one",10 nM
same,Agonist type,[2],full agonist
same,Decrease of EC50 value by co-application of NS9283,[3],2 fold
same,Increase of maximum response by co-application of NS9283,[3],4.4 fold
same,Est Pomax,[3]; [8],39% and 39 ± 1.5%
same,I/I1mM ACh (maximum response normalized to 1 mM ACh),"[3]; 3α4:2β2, ligand alone",18 ± 1.4%
same,EC50,"[3]; 3α4:2β2, ligand alone, Hill co-efficient of one",23 nM
same,Est Pomax,"[3]; 3α4:2β2, ligand alone",9.1% and 9 ± 0.7%
same,Agonist type,[3],partial agonists
same,I/I1mM ACh,[4],0* %
same,Activation of 3α4:2β2^HQT mutant receptors,[4],do not activate; also recorded: Neither Saz-A or TC-2559 activated
N#Cc1cccc(-c2nc(-c3cccnc3)no2)c1 [NS9283],"Constant multiplier C (CE / CF), averaged over Saz-A and TC-2559","[1]; NS9283 potentiation of Saz-A and TC-2559 activation, averaged",8.94
"CC(=O)OCC[N+](C)(C)C [ACh, acetylcholine]",Est Pomax,"[3]; 3α4:2β2, ligand alone",51 ± 5%
same,Potency of α4-α4 binding site relative to α4-β2 binding site (less potent),[5],~ 100 fold
